Experimental findings from ChEMBL document CHEMBL2401682, “Evaluation of Jatropha isabelli natural products and their synthetic analogs as potential antimalarial therapeutic agents” (Eur J Med Chem, 2013) are described below.

For data set [1], the system named is HEK293. Briefly: Cytotoxicity against HEK293 cells after 72 hrs by celltiter-glo assay. It counts as cell-based. Conditions: Homo sapiens, HEK293, 72 h. (ATP-based viability assays read luminescence as a measure of living cells.)
A short description of data set [2]: Plasma protein binding in human. It counts as ADME, cell-free. Conditions: read-out: PPB (converted).
Data set [3] relates to HepG2. Briefly: Cytotoxicity against human HepG2 cells after 72 hrs by celltiter-glo assay. Conditions: HepG2, 72 h. It counts as cell-based.
Data set [4] has as its system BJ. Briefly: Cytotoxicity against human BJ cells after 72 hrs by celltiter-glo assay. It counts as cell-based.
Data set [5] in a line: Solubility of the compound at pH 3 to 7. The format is physicochemical. Conditions: buffer.
The subject of data set [6] is Plasmodium falciparum. Briefly: Antimalarial activity against chloroquine and pyrimethamine-resistant Plasmodium falciparum K1 infected in O-positive erythrocytes assessed as parasite growth inhibition after 72 hrs by DNA staining-based assay. It counts as functional, organism-based. Conditions: K1, 72 h.
A short description of data set [7]: Efflux ratio of permeability in human Caco2 cells. It counts as ADME, cell-based. Conditions: Caco-2. A general note: Caco-2 monolayers are a common model of the intestinal barrier.
Data set [8] can be described thus: Half life in human liver microsomes. The format is ADME, Microsome.
Data set [9] concerns Plasmodium falciparum. Briefly: Antimalarial activity against chloroquine-sensitive Plasmodium falciparum 3D7 infected in O-positive erythrocytes assessed as parasite growth inhibition after 72 hrs by DNA staining-based assay. The format is functional, organism-based. Conditions: 3D7, 72 h.
In data set [10] the test system is Raji. Briefly: Cytotoxicity against human Raji cells after 72 hrs by celltiter-glo assay. The format is cell-based.
A short description of data set [11]: Half life in mouse plasma. It counts as ADME, cell-free.
The nature of data set [12]: Half life in human plasma. It counts as ADME, cell-free.
Data set [13] can be described thus: Half life in mouse liver microsomes. The format is ADME, Microsome.
Data set [14] is described as follows: Plasma protein binding in mouse. The format is ADME, cell-free. Conditions: read-out: PPB (converted).
Data set [15] is described as follows: Permeability of the compound by PAMPA. The format is ADME. Conditions: read-out: permeability. A general note: PAMPA measures passive passage across an artificial lipid membrane.
Data set [16] is described as follows: Solubility of the compound. The format is physicochemical.

≈ marks a conversion by molar mass, not a printed value.

The EC50 is the concentration giving half of the maximal effect. What is called solubility is how much of the substance goes into solution per volume. By efflux ratio is commonly meant the permeability from basolateral to apical divided by that in the opposite direction, in the common usage. What is called half-life is how long it takes for the measured level to halve. A high value points to slow loss. For the compound `CC1=C2CC(C)(C)/C=C/C(=O)/C(C)=C\C3=C[C@H](C)C[C@]3(O2)C1=O` [JATROPHONE], the EC50 was 6.09 µM in data set [1]; 6.09 µM in data set [3]; 1.93 µM in data set [4]; 5.41 µM in data set [6]; 15 µM in data set [9]; 26 µM in data set [10]. Moreover, the fraction unbound in data set [2] and in data set [14] was 0.26 throughout. Moreover, in data set [5], the concentration in solution (solubility) was 20 µg/mL (≈ 64 µM). Besides, the efflux ratio in [7] was found to be 1.5. Besides, the half-life is 6 min in [8], 12.6 min in [11], 7.8 min in [12] and 5.4 min in data set [13]. For the same compound, in data set [15], the Papp came to 525 ×10⁻⁶ cm/s.
On to `CC1=C2CC(C)(C)/C(c3ccc(C(F)(F)F)cc3)=C/C(=O)/C(C)=C\C3=C[C@H](C)C[C@]3(O2)C1=O`, for which the EC50 in data set [1] came to 26 µM; in data set [3], 26 µM; in data set [4], 26 µM; in data set [6], 5.88 µM; in data set [9] it was 6.08 µM; in data set [10] it was 26 µM. In addition, the Papp in [15] was determined as 106 ×10⁻⁶ cm/s. The compound also had a solubility in data set [16] of 17 µg/mL (≈ 37.2 µM).
`C[C@@H]1CC[C@H]2CC3=C(C=O)CC[C@@]31C2(C)C`: the EC50 in data set [1] was 26 µM; in [3], 26 µM; in data set [4] it was 26 µM; in data set [6], 15 µM; in data set [9] it was 15 µM; in data set [10], 26 µM.
Consider `CC1=C2CC(C)(C)[C@@H]3C=C(OC3)/C(C)=C\C3=C[C@H](C)C[C@]3(O2)C1=O`, for which the EC50 in [1] was 26 µM; in [3], 26 µM; in data set [4], 26 µM; in [6], 15 µM; in [9], 15 µM; in data set [10], 26 µM.
As to `C/C1=C/C2=C[C@H](C)C[C@@]23O[C@]2(CC(C)(C)C[C@@H]2[C@@]1(O)C#N)[C@@H](C)C3=O`, the concentration giving a half-maximal response (EC50) in data set [1] was 8.66 µM; in [3], 26 µM; in data set [4], 26 µM; in data set [6], 15 µM; in data set [9], 15 µM; in data set [10] it was 26 µM.
On to `CC(=O)O[C@H]1/C=C/C(C)(C)CC2=C(C)C(=O)[C@]3(C[C@@H](C)C=C3/C=C\1C)O2`, for which the EC50 in [1] was found to be 26 µM; in data set [3], 26 µM; in data set [4] it was 26 µM; in data set [6], 15 µM; in data set [9], 3.2 µM; in [10], 26 µM.
`C/C1=C/C2=C[C@H](C)C[C@@]23O[C@]2(CC(C)(C)[C@@H](Br)[C@@H]2C1=O)[C@](C)(Br)C3=O`: the EC50 in data set [1] is 26 µM; in data set [3] it was 26 µM; in data set [4] it was 26 µM; in [6], 15 µM; in [9], 15 µM; in data set [10], 4.38 µM.
Regarding `C/C1=C/C2=C[C@H](C)C[C@@]23O[C@]2(CC(C)(C)[C@@H](OC(C)C)[C@@H]2C1=O)[C@@H](C)C3=O`, the EC50 in data set [1] came to 26 µM; in [3] it was 26 µM; in data set [4], 26 µM; in data set [6], 15 µM; in [9] it was 15 µM; in data set [10], 26 µM.
For the compound `C/C1=C/C2=C[C@H](C)C[C@@]23O[C@]2(CC(C)(C)[C@@H](Nc4ccccc4)[C@@H]2C1=O)[C@@H](C)C3=O`, the EC50 was 26 µM in data set [1]; 26 µM in [3]; 12.6 µM in data set [4]; 5.58 µM in [6]; 8.88 µM in data set [9]; 26 µM in data set [10].
Turning to `CC1=C2CC(C)(C)/C=C/C(=O)/C(C)=C\C3=C[C@H](C)C[C@]3(O2)[C@@]1(O)C#N`, the concentration giving a half-maximal response (EC50) in data set [1] came to 26 µM; in [3], 26 µM; in [4] it was 26 µM; in data set [6], 15 µM; in [9], 15 µM; in data set [10], 21.2 µM.
On to `CC(=O)O[C@H]1CC[C@]2(C)[C@H]3CC[C@]4(C)C(=CC[C@@]5(C(=O)O)CCC(C)(C)C[C@H]54)[C@]3(C)CC[C@H]2C1(C)C` [ACETYL ALEURITOLIC ACID], for which the EC50 worked out at 26 µM in [1]; 26 µM in data set [3]; 26 µM in data set [4]; 15 µM in [6]; 15 µM in data set [9]; 26 µM in data set [10].
In the case of `C/C1=C/C2=C[C@H](C)C[C@@]23O[C@]2(CC(C)(C)C[C@@H]2[C@@]1(O)C(F)(F)F)[C@@H](C)C3=O`, the EC50 in data set [1] is 26 µM; in [3] it was 26 µM; in data set [4], 26 µM; in data set [6], 15 µM; in data set [9] it was 15 µM; in [10], 26 µM.
In the case of `CC1=C2CC(C)(C)[C@@H](C)CC(=O)/C(C)=C\C3=C[C@H](C)C[C@]3(O2)C1=O`, the EC50 in data set [1] amounted to 26 µM; in data set [3], 26 µM; in data set [4] it was 26 µM; in data set [6] it was 15 µM; in data set [9], 15 µM; in data set [10], 26 µM.
Take `C/C1=C/C2=C[C@H](C)C[C@@]23O[C@]2(CC(C)(C)[C@@H](O)[C@@H]2C1=O)[C@@H](C)C3=O`: the EC50 came out at 26 µM in data set [1]; 26 µM in data set [3]; 10.4 µM in data set [4]; 15 µM in [6]; 15 µM in data set [9]; 26 µM in data set [10].
As for `CO[C@H]1[C@@H]2C(=O)/C(C)=C\C3=C[C@H](C)C[C@@]34O[C@]2(CC1(C)C)[C@@H](C)C4=O`, the EC50 is 26 µM in [1]; 26 µM in data set [3]; 26 µM in data set [4]; 15 µM in data set [6]; 15 µM in [9]; 26 µM in [10].
As to `C[C@@H]1CC[C@H]2CC3=C(CO)CC[C@@]31C2(C)C`, the EC50 in [1] stood at 26 µM; in data set [3], 26 µM; in data set [4], 26 µM; in data set [6], 15 µM; in [9], 15 µM; in data set [10], 26 µM.
On to `CC1=C2CC(C)(C)/C=C/C(=O)/C(C)=C\C3=C[C@H](C)C[C@]3(O2)[C@@]1(O)C(F)(F)F`, for which the EC50 was found to be 26 µM in [1]; 26 µM in data set [3]; 26 µM in data set [4]; 15 µM in data set [6]; 15 µM in [9]; 26 µM in data set [10].
On to `C=C1CC[C@H]2[C@@H](c3c(C)c(OC(C)=O)c4c(c31)C(=O)C(C)C4)C2(C)C` (some centres undefined), for which the EC50 in [1] turned out to be 26 µM; in data set [3], 26 µM; in data set [4], 26 µM; in data set [6], 6.31 µM; in data set [9], 15 µM; in data set [10], 26 µM.
